Test results taken from patent US20170217976A1, “6-(AMINO ACID)-MORPHINAN DERIVATIVES IN COMBINATION WITH PERMEATION […] FOR USE AS AN ORALLY, […], TRA[…] NASALLY AD[…]” (C[…], priority 2014, published 2017).
Like-named read-outs stand apart in the source and are kept apart here.

Tests used:
[1] = Riba P. et al. 2010, cited from earlier work
DOR = molecular target: T1, DOR (Rattus norvegicus, UniProt P33533); test: Opioid receptor binding, DOR, rat brain membranes
T1 construct: from tissue

MOR = molecular target: T2, MOR (Rattus norvegicus, UniProt P33535); test: Opioid receptor binding, MOR, rat brain membranes
T2 construct: from tissue
T2 sequence (P33535 whole entry): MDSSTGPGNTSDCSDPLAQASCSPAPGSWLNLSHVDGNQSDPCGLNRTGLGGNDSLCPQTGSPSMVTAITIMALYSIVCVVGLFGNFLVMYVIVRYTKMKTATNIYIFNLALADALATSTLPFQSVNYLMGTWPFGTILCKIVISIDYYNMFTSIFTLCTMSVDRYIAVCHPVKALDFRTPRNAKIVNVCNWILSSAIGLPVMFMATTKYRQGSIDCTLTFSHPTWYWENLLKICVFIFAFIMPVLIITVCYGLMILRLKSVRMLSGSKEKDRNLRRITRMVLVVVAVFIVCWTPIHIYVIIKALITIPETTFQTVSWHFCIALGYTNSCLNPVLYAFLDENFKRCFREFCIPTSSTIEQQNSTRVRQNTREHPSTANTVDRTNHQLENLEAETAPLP

KOR = molecular target: T3, KOR (Cavia porcellus, UniProt P41144); test: Opioid receptor binding, KOR, guinea pig brain membranes
T3 construct: from tissue
T3 sequence (P41144 whole entry): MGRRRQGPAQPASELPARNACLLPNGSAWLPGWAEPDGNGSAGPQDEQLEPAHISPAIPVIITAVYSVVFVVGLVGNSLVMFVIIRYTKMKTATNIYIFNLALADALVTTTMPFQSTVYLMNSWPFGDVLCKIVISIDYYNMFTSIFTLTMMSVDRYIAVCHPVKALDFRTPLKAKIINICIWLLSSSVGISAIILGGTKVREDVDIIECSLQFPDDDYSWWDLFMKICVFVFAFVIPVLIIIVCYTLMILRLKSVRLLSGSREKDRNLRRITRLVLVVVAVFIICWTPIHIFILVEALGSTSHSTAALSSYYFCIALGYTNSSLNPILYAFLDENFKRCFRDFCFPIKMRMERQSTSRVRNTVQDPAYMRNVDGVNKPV

human MOR = molecular target: T4, human MOR (Homo sapiens, UniProt P35372); test: biochemical; format: biochemical; settings: for EC50: Table 1-4, human MOP expressed in CHO cells, read-out: [35S]GTPγS binding, MOR EC50; for Emax: Table 1-4, measured against DAMGO, read-out: [35S]GTPγS binding, MOR % stim.
T4 construct: expressed in transfected cells; host or cells: CHO cells
T4 sequence (P35372 whole entry): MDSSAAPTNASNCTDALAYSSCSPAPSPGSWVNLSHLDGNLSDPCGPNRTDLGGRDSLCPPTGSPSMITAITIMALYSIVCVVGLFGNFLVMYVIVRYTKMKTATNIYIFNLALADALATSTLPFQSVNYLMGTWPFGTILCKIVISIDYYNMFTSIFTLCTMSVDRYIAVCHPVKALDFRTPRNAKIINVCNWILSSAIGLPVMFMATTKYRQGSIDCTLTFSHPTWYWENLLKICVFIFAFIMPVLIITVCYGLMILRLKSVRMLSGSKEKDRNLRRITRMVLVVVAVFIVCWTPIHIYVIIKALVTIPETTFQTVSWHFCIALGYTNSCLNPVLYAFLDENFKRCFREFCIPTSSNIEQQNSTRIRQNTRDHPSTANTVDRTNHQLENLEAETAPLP
Protocol: A number of compounds were evaluated for agonist potency and efficacy at the MOR using the [^35S]GTPγS functional assay in CHO cells expressing human MOR receptors.

[2] = tested on: mouse vas deferens preparation; test: Mouse vas deferens bioassay; settings: for IC50: read-out: IC50, agonist potency in mouse vas deferens
Protocol: The mouse vas deferens bioassay was performed as described in: M. Spetea et al., Eur. J. Pharmacol. 2004, 483, 301-308

[3] = pH-metric determination of pKa, logP and logD in octanol/water (PCA200/Cheqsol); format: physicochemical; settings: octanol/water, 25° C.
Protocol: All titrations were performed in 0.15M KCl solution under argon gas. The pKa was determined by the shape of the titration curve and partition coefficients were determined by the shift in titration curve of pKa in the presence of octanol. The analysis of pH-metric data was performed by RefinementPro software (version 2.0, Sirius, Sussex, UK).

rats = test: Tail-flick test in rats after oral administration; format: in vivo, rat; settings: for ED50: Rattus norvegicus, po
Protocol: The rat tail-flick test was performed as described in: S. Furst et. al. J. Pharmacol. Exp. Ther. 2005, 312, 609-618

[4] = molecular target: T5, human MOP expressed in CHO cells (Homo sapiens, UniProt P35372); test: [35S]GTPγS binding, antagonism at MOR (Ke against DAMGO); format: biochemical
T5 construct: expressed in transfected cells; host or cells: CHO cells (per the unit's head)
T5 sequence (P35372 whole entry): as above

[5] = Binding Ki (nM) DOR, in vitro binding assay, rat brain membranes
[6] = Binding Ki DOR, Table 1-4, rat brain membranes
[7] = Binding Ki (nM) MOR, in vitro binding assay, rat brain membranes
[8] = Binding Ki MOR, Table 1-4, rat brain membranes
[9] = Binding Ki (nM) KOR, in vitro binding assay, guinea pig brain membranes
[10] = Binding Ki KOR, Table 1-4, guinea pig brain membranes

T1 sequence (P33533 whole entry): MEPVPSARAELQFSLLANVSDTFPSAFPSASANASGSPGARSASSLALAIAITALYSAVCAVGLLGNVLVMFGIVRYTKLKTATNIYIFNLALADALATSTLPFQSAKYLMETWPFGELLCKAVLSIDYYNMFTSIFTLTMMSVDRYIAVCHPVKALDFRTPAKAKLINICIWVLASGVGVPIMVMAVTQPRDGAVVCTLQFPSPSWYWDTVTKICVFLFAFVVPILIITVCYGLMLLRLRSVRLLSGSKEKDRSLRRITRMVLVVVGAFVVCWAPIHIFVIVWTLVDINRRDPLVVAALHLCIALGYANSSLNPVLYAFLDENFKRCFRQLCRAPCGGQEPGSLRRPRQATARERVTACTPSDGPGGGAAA

| Structure (SMILES) | Ki (DOR; [5]) [nM] | Ki (DOR; [6]) [nM] | Ki (MOR; [7]) [nM] | Ki (MOR; [8]) [nM] | Ki (KOR; [9]) [nM] | Ki (KOR; [10]) [nM] | EC50 (human MOR) [nM] | other results |
| --- | --- | --- | --- | --- | --- | --- | --- | --- |
| CN1CC[C@]23c4c5ccc(O)c4O[C@H]2C(=O)CC[C@@]3(O)[C@H]1C5 [OMO, oxymorphone] |  |  |  |  |  |  |  | logD (pH = 7.4) ([1]; pH 7.4, published data): −0.32; logP ([1]; published data): 0.67; pKa ([1]; published data): 8.33 |
| CO[C@@]12CC[C@@H](N[C@@H](CO)C(=O)O)[C@@H]3Oc4c(O)ccc5c4[C@@]31CCN(C)[C@@H]2C5 [Compound 37] | 5.29 | 5.29 | 2.14 | 2.14 | 152 | 152 | 3.24 |  |
| C[C@@H](NC(=O)[C@@H](N)Cc1ccc(O)cc1)C(=O)NCC(=O)N(C)[C@@H](Cc1ccccc1)C(=O)NCCO [DAMGO, reference compound] |  |  |  |  |  |  |  | IC50 [2]: 76.6 nM |
| CO[C@@]12CC[C@H](N[C@@H](CC(N)=O)C(=O)O)[C@@H]3Oc4c(O)ccc5c4[C@@]31CCN(C)[C@@H]2C5 [Compound 26] | 3.37 | 3.37 | 1.17 | 1.17 | 74 | 74 | 0.64 | Emax (human MOR): 109% |
| CO[C@@]12CC[C@H](N[C@@H](Cc3ccccc3)C(=O)O)[C@@H]3Oc4c(O)ccc5c4[C@@]31CCN(C)[C@@H]2C5 [Compound 3] |  |  |  |  |  |  | 0.03 | Emax (human MOR): 116% |
| CO[C@@]12CC[C@H](N[C@@H](CCCCN)C(=O)O)[C@@H]3Oc4c(O)ccc5c4[C@@]31CCN(C)[C@@H]2C5 [Compound 38] | 1.27 | 1.27 | 0.19 | 0.19 | 12.6 | 12.6 |  | logP [3]: -0.66 |
| CCOC(=O)CN[C@@H]1CC[C@@]2(OC)[C@H]3Cc4ccc(O)c5c4[C@@]2(CCN3C)[C@H]1O5 [HS731-Et ester] | 0.81 |  | 0.74 |  | 21.9 |  |  | IC50 ([2]; Mus musculus): 23.8 nM; times less potent than HS731 in mouse vas deferens bioassay ([2]; relative to HS731): about 3.5; ED50 (rats; 0.5 h, read-out: ED50 (p.o., mg/kg) 30 min, 30 min): > 2.5 mg/kg; ED50 (rats; read-out: ED50 (p.o., mg/kg) 1 h, 1 h): 2.34 mg/kg; ED50 (rats; read-out: ED50 (p.o., mg/kg) 2 h, 2 h): 0.85 mg/kg; ED50 (rats; read-out: ED50 (p.o., mg/kg) 3 h, 3 h): 0.71 mg/kg; ED50 (rats; read-out: ED50 (p.o., mg/kg) 4 h, 4 h): 0.82 mg/kg; antinociceptive potency, fold higher than HS731 after 1 h (rats; p.o., 1 h, relative to HS731): ca. 2 fold; antinociceptive potency, fold higher than HS731 after 2 h (rats; p.o., 2 h, relative to HS731): ca. 8 fold; antinociceptive potency, fold higher than HS731 after 3 h (rats; p.o., 3 h, relative to HS731): ca. 9 fold |
| CO[C@@]12CC[C@@H](NCCC(=O)O)[C@@H]3Oc4c(O)ccc5c4[C@@]31CCN(CC1CC1)[C@@H]2C5 [Compound 64] |  |  |  |  |  |  |  | Ki (DOR; Binding Ki DOR, Table 1-6, rat brain membranes): 8.12 nM; Ki (DOR; Binding Ki DOR, Table 2-6, rat brain membranes): 8.12 nM; EC50 [4]: > 10000 nM; Kb ([4]; [35S]GTPγS binding, MOR Ke, Table 1-6, antagonist Ke measured against DAMGO): 0.96 nM; Ki (MOR; Binding Ki MOR, Table 1-6, rat brain membranes): 1.51 nM; Ki (MOR; Binding Ki MOR, Table 2-6, rat brain membranes): 1.51 nM; Ki (KOR; Binding Ki KOR, Table 1-6, guinea pig brain membranes): 11.7 nM; Ki (KOR; Binding Ki KOR, Table 2-6, guinea pig brain membranes): 11.7 nM |
| CO[C@@]12CC[C@H](N[C@@H](CCC(=O)O)C(=O)O)[C@@H]3Oc4c(O)ccc5c4[C@@]31CCN(C)[C@@H]2C5 [Compound 19] |  |  |  |  |  |  | 1.61 |  |
| CO[C@@]12CC[C@@H](N[C@@H](Cc3c[nH]c4ccccc34)C(=O)O)[C@@H]3Oc4c(O)ccc5c4[C@@]31CCN(C)[C@@H]2C5 [Compound 46] | 1.19 | 1.19 | 0.65 | 0.65 | 8.66 | 8.66 | 0.61 | Emax (human MOR): 112% |
| CO[C@@]12CC[C@@H](N[C@H](C(=O)O)[C@@H](C)O)[C@@H]3Oc4c(O)ccc5c4[C@@]31CCN(C)[C@@H]2C5 [Compound 35] | 5.16 | 5.16 | 0.79 | 0.79 | 58.6 | 58.6 |  | logP [3]: -1.38 |
